Data from US9149038B2, “4-amino-6-(heterocyclic)picolinates and 6-amino-2-(heterocyclic)pyrimidine-4-carboxylates and their use as herbicides” (Dow AgroSciences LLC, priority 2013, dated 2015).
Where two headings read alike, the source gives them in different places.

Key:
[1] = test system: Key Grass and Sedge Weeds as well as Grass Crops; assay: Post-Emergent Test II: postemergent herbicidal activity, visual rating after 14 d (Table 8); type: in vivo; details: post-emergence, 336 h; for pest or weed control at 35 g/ha: 35 g ai/ha; for pest or weed control at 70 g/ha: 70 g ai/ha; for pest or weed control at 140 g/ha: 140 g ai/ha
Summary of the method: (§1)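 Plants were raised in a greenhouse for 7-21 d and treated once at the first or second true leaf stage. Compounds, dissolved in 97:3 acetone:DMSO then diluted into an aqueous acetone/isopropanol/crop oil/Triton X-155 carrier, were applied by overhead track sprayer at 187 L/ha. After 14 d with subirrigation, injury was scored visually from 0 (none) to 100 (complete kill).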

[2] = test system: Key Broadleaf Weed and Crop Species; assay: Post-Emergent Test II: postemergent herbicidal activity, visual rating after 14 d (Table 7); type: in vivo; details: post-emergence, 336 h; for pest or weed control at 35 g/ha: 35 g ai/ha; for pest or weed control at 70 g/ha: 70 g ai/ha; for pest or weed control at 140 g/ha: 140 g ai/ha
Summary of the method: as §1

[3] = barnyardgrass (Echinochloa crus-galli), read-out: Visual Growth Reduction (%) 14 Days After Application, ECHCG
[4] = giant foxtail (Setaria faberi), read-out: Visual Growth Reduction (%) 14 Days After Application, SETFA
[5] = maize, corn (Zea mays), read-out: Visual Growth Reduction (%) 14 Days After Application, ZEAMX
[6] = rice (Oryza sativa), read-out: Visual Growth Reduction (%) 14 Days After Application, ORYSA
[7] = wheat, spring (Triticum aestivum), read-out: Visual Growth Reduction (%) 14 Days After Application, TRZAS
[8] = yellow nutsedge (Cyperus esculentus), read-out: Visual Growth Reduction (%) 14 Days After Application, CYPES
[9] = ABUTH: velvetleaf (Abutilon theophrasti), read-out: Visual Growth Reduction (%) 14 Days After Application ABUTH
[10] = AMARE: redroot pigweed (Amaranthus retroflexus), read-out: Visual Growth Reduction (%) 14 Days After Application AMARE
[11] = BRSNN: oilseed rape, canola (Brassica napus), read-out: Visual Growth Reduction (%) 14 Days After Application BRSNN
[12] = CHEAL: lambsquarters (Chenopodium album), read-out: Visual Growth Reduction (%) 14 Days After Application CHEAL
[13] = EPHHL: wild poinsettia (Euphorbia heterophylla), read-out: Visual Growth Reduction (%) 14 Days After Application EPHHL
[14] = HELAN: sunflower (Helianthus annuus), read-out: Visual Growth Reduction (%) 14 Days After Application HELAN

Row | SMILES | pest or weed control at 35 g/ha [1, 3] | pest or weed control at 70 g/ha [1, 3] | pest or weed control at 140 g/ha [1, 3] | pest or weed control at 35 g/ha [1, 4] | pest or weed control at 70 g/ha [1, 4] | pest or weed control at 140 g/ha [1, 4] | pest or weed control at 35 g/ha [1, 5] | pest or weed control at 70 g/ha [1, 5] | pest or weed control at 140 g/ha [1, 5] | pest or weed control at 35 g/ha [1, 6] | pest or weed control at 70 g/ha [1, 6] | pest or weed control at 140 g/ha [1, 6] | pest or weed control at 35 g/ha [1, 7] | pest or weed control at 70 g/ha [1, 7] | pest or weed control at 140 g/ha [1, 7] | pest or weed control at 35 g/ha [1, 8] | pest or weed control at 70 g/ha [1, 8] | pest or weed control at 140 g/ha [1, 8] | pest or weed control at 35 g/ha [2, 9] | pest or weed control at 70 g/ha [2, 9] | other results
1 | Nc1cc(-c2ccc(F)c3c2OC(F)(F)O3)nc(C(=O)O)c1Cl [Compound 89] | 0 to 29% | 0 to 29% | 0 to 29% | 0 to 29% | 0 to 29% | 0 to 29% | 0 to 29% | 0 to 29% | 0 to 29% | 0 to 29% | 0 to 29% | 0 to 29% | 0 to 29% | 0 to 29% | 0 to 29% | 0 to 29% | 0 to 29% | 0 to 29% | 0 to 29% | 75 to 84% | pest or weed control at 140 g/ha [2, 9]: 75 to 84%; pest or weed control at 35 g/ha [2, 10]: 95 to 100%; pest or weed control at 70 g/ha [2, 10]: 95 to 100%; pest or weed control at 140 g/ha [2, 10]: 95 to 100%; pest or weed control at 35 g/ha [2, 11]: 85 to 94%; pest or weed control at 70 g/ha [2, 11]: 85 to 94%; pest or weed control at 140 g/ha [2, 11]: 95 to 100%; pest or weed control at 35 g/ha [2, 12]: 95 to 100%; pest or weed control at 70 g/ha [2, 12]: 95 to 100%; pest or weed control at 140 g/ha [2, 12]: 95 to 100%; pest or weed control at 35 g/ha [2, 13]: 0 to 29%; pest or weed control at 70 g/ha [2, 13]: 0 to 29%; pest or weed control at 140 g/ha [2, 13]: 0 to 29%; pest or weed control at 35 g/ha [2, 14]: 60 to 74%; pest or weed control at 70 g/ha [2, 14]: 60 to 74%; pest or weed control at 140 g/ha [2, 14]: 75 to 84%
2 | COC(=O)c1nc(-c2ccc(Cl)c3c2OC(F)(F)O3)nc(N)c1OC [Compound 95] | 0 to 29% | 0 to 29% | 0 to 29% | 0 to 29% | 0 to 29% | 0 to 29% | 0 to 29% | 0 to 29% | 0 to 29% | 0 to 29% | 0 to 29% | 0 to 29% | 0 to 29% | 0 to 29% | 0 to 29% | 0 to 29% | 45 to 59% | 45 to 59% | 45 to 59% | 75 to 84% | pest or weed control at 140 g/ha [2, 9]: 75 to 84%; pest or weed control at 35 g/ha [2, 10]: 95 to 100%; pest or weed control at 70 g/ha [2, 10]: 95 to 100%; pest or weed control at 140 g/ha [2, 10]: 95 to 100%; pest or weed control at 35 g/ha [2, 11]: 45 to 59%; pest or weed control at 70 g/ha [2, 11]: 45 to 59%; pest or weed control at 140 g/ha [2, 11]: 60 to 74%; pest or weed control at 35 g/ha [2, 12]: 95 to 100%; pest or weed control at 70 g/ha [2, 12]: 95 to 100%; pest or weed control at 140 g/ha [2, 12]: 95 to 100%; pest or weed control at 35 g/ha [2, 13]: 0 to 29%; pest or weed control at 70 g/ha [2, 13]: 0 to 29%; pest or weed control at 140 g/ha [2, 13]: 0 to 29%; pest or weed control at 35 g/ha [2, 14]: 95 to 100%; pest or weed control at 70 g/ha [2, 14]: 95 to 100%; pest or weed control at 140 g/ha [2, 14]: 95 to 100%
